Test results reported in PubChem BioAssay (NCI).
“And” between values parts separate entries of the source, which are not always exact repeats. Equal values may be shown once.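 Briefly, cells in 96-well plates were exposed to five compound concentrations for 48 h, and endpoints were estimated by linear interpolation. Abbreviation: GI50, concentration required for 50% inhibition of growth. TGI is the concentration that stops growth completely.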

Key:
Assay in all cases: DTP human tumour cell line panel, 48 h
[1] = test system: CCRF-CEM leukemia
[2] = test system: HL-60(TB) leukemia
[3] = test system: HOP-62 NSCLC
[4] = test system: HS 578T breast
[5] = test system: MOLT-4 leukemia
[6] = test system: NCI-H460 lung
[7] = test system: RPMI-8226 leukemia
[8] = test system: SF-539 CNS
[9] = test system: HT29 colon
[10] = test system: RXF 393 renal

With `CN1CCN(CCCN2c3ccccc3Sc3ccc(Cl)cc32)CC1` the GI50 [1] was 6.46 µM, the TGI [1] was 15.1 µM and the GI50 [2] was 8.85 µM. For the same molecule, the TGI [2] was 17.9 µM, the GI50 [3] was 6.32 µM and 48.5 µM and the TGI [3] was 13.6 µM and 85.6 µM. For the same molecule, the TGI [4] was 13.5 µM and 83.2 µM, the GI50 [5] was 3.8 µM and the TGI [5] was 11.5 µM. The TGI [6] was 11.4 µM and 80.5 µM, the GI50 [7] was 6.16 µM and the TGI [7] was 16 µM. The GI50 [8] was 7.49 µM and 51.6 µM and the TGI [8] was 14.6 µM and 87.9 µM.
`COc1cc(CCNC(=O)OC(C)(C)C)c2c(c1OC)SSSSS2` was tested, and the GI50 [1] was 5.34 µM, the TGI [1] was 65.2 µM and the GI50 [2] was 2.92 µM. For the same molecule, the TGI [2] was 13.4 µM, the GI50 [3] was 3.71 µM and the TGI [3] was 15.3 µM. The GI50 [4] was 3.79 µM, the TGI [4] was 32.6 µM and the GI50 [9] was 1.86 µM. For the same molecule, the TGI [9] was 4.02 µM, the GI50 [5] was 5.46 µM and the TGI [5] was > 100 µM. For the same molecule, the GI50 [6] was 2.04 µM, the TGI [6] was 4.81 µM and the GI50 [7] was 2.11 µM. The TGI [7] was 10.7 µM, the GI50 [8] was 3.42 µM and the TGI [8] was 10.4 µM.
`C=CCOC(=O)Nc1cccn([C@H](CC(C)C)C(=O)NCCC(C)C)c1=O` was tested, and the GI50 [1] was 26.8 µM, the TGI [1] was 90.3 µM and the GI50 [2] was 58.9 µM. The TGI [2] was > 100 µM, the GI50 [3] was > 100 µM and the TGI [3] was > 100 µM. For the same molecule, the GI50 [4] was 87.8 µM, the TGI [4] was > 100 µM and the GI50 [9] was > 100 µM. The TGI [9] was > 100 µM, the GI50 [5] was 61.9 µM and the TGI [5] was > 100 µM. For the same molecule, the GI50 [6] was > 100 µM, the TGI [6] was > 100 µM and the GI50 [7] was 22.7 µM. For the same molecule, the TGI [7] was > 100 µM, the GI50 [10] was > 100 µM and the TGI [10] was > 100 µM. The GI50 [8] was > 100 µM and the TGI [8] was > 100 µM.
In the case of `C=CC(=O)Nc1cccc(Oc2nc(Nc3ccc(N4CCN(C)CC4)cc3OC)ncc2Cl)c1`, the GI50 [1] is reported as 3.17 µM, the TGI [1] is reported as > 26.3 µM and the GI50 [3] is reported as 3.01 µM. The TGI [3] was 12.1 µM, the GI50 [4] was 1.86 µM and the TGI [4] was 5.39 µM. It also gave a GI50 [9] of 2.08 µM, a TGI [9] of 4.53 µM and a GI50 [5] of 2.57 µM. For the same molecule, the TGI [5] was > 23.4 µM, the GI50 [6] was 3.49 µM and the TGI [6] was > 34.4 µM. It also gave a GI50 [7] of 1.97 µM, a TGI [7] of 5.1 µM and a GI50 [10] of 1.49 µM. The TGI [10] was 3.12 µM, the GI50 [8] was 1.98 µM and the TGI [8] was 3.72 µM.
`CCNCCNc1cc(-c2ccc(C(F)(F)F)cc2)c(C#N)c2nc3cc(Cl)c(Cl)cc3n12` gave a GI50 [2] of 0.308 µM, a TGI [2] of 1.01 µM and a GI50 [3] of 1.96 µM. It also gave a TGI [3] of 3.56 µM, a GI50 [4] of 1.81 µM and a TGI [4] of 3.91 µM. It also gave a GI50 [9] of 1.64 µM, a TGI [9] of 3.08 µM and a GI50 [6] of 1.66 µM. The TGI [6] was 3.27 µM, the GI50 [7] was 1.71 µM and the TGI [7] was 3.85 µM. It also gave a GI50 [10] of 1.3 µM, a TGI [10] of 2.62 µM and a GI50 [8] of 1.74 µM. For the same molecule, the TGI [8] was 3.23 µM.
In the case of `NC(N)=N/N=C/c1c(-c2cccnc2)nc2sc(Cl)cn12`, the GI50 [1] is reported as 6.66 µM, the TGI [1] is reported as 23.9 µM and the GI50 [3] is reported as 18 µM. The TGI [3] was 31.9 µM, the GI50 [4] was 22.3 µM and the TGI [4] was 46.6 µM. The GI50 [5] was 13.6 µM, the TGI [5] was 31.6 µM and the GI50 [6] was 61.2 µM. The TGI [6] was > 100 µM, the GI50 [7] was 18 µM and the TGI [7] was 42 µM. It also gave a GI50 [10] of 17.2 µM, a TGI [10] of 36.7 µM and a GI50 [8] of 13.4 µM. For the same molecule, the TGI [8] was 26.3 µM.
Molecule `O=C1c2c(Cl)c(Cl)c(Cl)c(Cl)c2C(=O)C2(Cl)CC=CCC12Cl` (configuration not stated) has a GI50 [1] of 1.76 µM, a TGI [1] of 7.28 µM and a GI50 [2] of 1.9 µM. The TGI [2] was 5.04 µM, the GI50 [3] was 1.86 µM and the TGI [3] was 3.65 µM. The GI50 [4] was 2.04 µM, the TGI [4] was 5.88 µM and the GI50 [5] was 2.39 µM. The TGI [5] was 6.36 µM, the GI50 [6] was 3.09 µM and the TGI [6] was 11 µM. For the same molecule, the GI50 [7] was 2.31 µM, the TGI [7] was 6.12 µM and the GI50 [10] was 1.63 µM. The TGI [10] was 3.01 µM, the GI50 [8] was 2.06 µM and the TGI [8] was 4.05 µM.
For `CCCCCCCCCCCCCCCCN(CC)CC`, the GI50 [3] was 2.87 µM, the TGI [3] was 8.77 µM and the GI50 [4] was 3.47 µM. The TGI [4] was 15.8 µM, the GI50 [9] was 2.13 µM and the TGI [9] was 4.59 µM. The GI50 [6] was 1.92 µM, the TGI [6] was 3.56 µM and the GI50 [7] was 2.23 µM. For the same molecule, the TGI [7] was 4.75 µM, the GI50 [10] was 1.88 µM and the TGI [10] was 4.2 µM. For the same molecule, the GI50 [8] was 1.67 µM and the TGI [8] was 3.06 µM.
For `COC(=O)CNc1nc(N(C)O)nc(N(C)O)n1`, the GI50 [1] was 0.697 µM, the TGI [1] was > 100 µM and the GI50 [3] was 2.12 µM. The TGI [3] was > 100 µM, the GI50 [4] was 8.96 µM and the TGI [4] was > 100 µM. The GI50 [9] was 6.5 µM, the TGI [9] was > 100 µM and the GI50 [5] was 1.69 µM. The TGI [5] was > 100 µM, the GI50 [6] was 0.557 µM and the TGI [6] was > 100 µM. For the same molecule, the GI50 [7] was 1.49 µM, the TGI [7] was > 100 µM and the GI50 [10] was 4.85 µM. The TGI [10] was > 100 µM, the GI50 [8] was 3.48 µM and the TGI [8] was > 100 µM.
`CC(=O)OCC1OC(n2ncc(=O)[nH]c2=O)C(OC(C)=O)C1OC(C)=O` (configuration not stated) was tested, and the TGI [1] was > 100 µM, the TGI [3] was > 100 µM and the TGI [4] was > 100 µM. The TGI [9] was > 100 µM, the TGI [5] was > 100 µM and the TGI [6] was > 100 µM. The TGI [7] was > 100 µM, the TGI [10] was > 100 µM and the TGI [8] was > 100 µM.
In the case of `COc1ccc(NC(=O)c2ccc(NC3=C(Cl)C(=O)N(Cc4ccccc4)C3=O)cc2)c(OC)c1`, the GI50 [2] is reported as 13.2 µM, the TGI [2] is reported as 31.1 µM and the GI50 [3] is reported as 19 µM. For the same molecule, the TGI [3] was 53.7 µM, the GI50 [4] was > 100 µM and the TGI [4] was > 100 µM. For the same molecule, the GI50 [9] was 41.5 µM, the TGI [9] was > 100 µM and the GI50 [5] was 9.94 µM. The TGI [5] was 36.2 µM, the GI50 [6] was 38.4 µM and the TGI [6] was > 100 µM. It also gave a GI50 [7] of 4.85 µM, a TGI [7] of 22.8 µM and a GI50 [10] of 50.2 µM. The TGI [10] was > 100 µM, the GI50 [8] was 28.2 µM and the TGI [8] was 67.1 µM.
With `O=C(c1ccccc1)c1nc2ccc(C(F)(F)F)cc2nc1N1CCN(c2ccccc2)CC1` the GI50 [1] was 21 µM, the TGI [1] was > 100 µM and the GI50 [2] was 30.9 µM. The TGI [2] was > 100 µM, the GI50 [3] was 60.9 µM and the TGI [3] was > 100 µM. The GI50 [4] was 65 µM, the TGI [4] was > 100 µM and the GI50 [5] was 24.6 µM. For the same molecule, the TGI [5] was > 100 µM, the GI50 [6] was 52.1 µM and the TGI [6] was > 100 µM. The GI50 [7] was 23.3 µM, the TGI [7] was > 100 µM and the GI50 [10] was 35.5 µM. For the same molecule, the TGI [10] was > 100 µM, the GI50 [8] was 52.9 µM and the TGI [8] was > 100 µM.
With `N#CC1=C(N)Oc2c(sc3c(Br)cccc23)C1c1ccc(Cl)cc1` (configuration not stated) the GI50 [1] was 0.368 µM, the TGI [1] was 2.36 µM and the GI50 [2] was 0.357 µM. For the same molecule, the TGI [2] was 1.88 µM, the GI50 [3] was 0.89 µM and the TGI [3] was 6.42 µM. It also gave a GI50 [4] of 0.855 µM, a TGI [4] of 18.1 µM and a GI50 [9] of 0.711 µM. For the same molecule, the TGI [9] was 2.85 µM, the GI50 [5] was 0.625 µM and the TGI [5] was 6.49 µM. It also gave a GI50 [7] of 0.496 µM, a TGI [7] of 9.25 µM and a GI50 [10] of 0.553 µM. The TGI [10] was 3.01 µM.
For `C=C1C(=O)C2=CC1CCC(=O)C1(C)CCC(OC(C)=O)C(C)(C)C1CC2O` (configuration not stated), the TGI [3] was 22.8 µM, the TGI [4] was 20.4 µM and the TGI [9] was 10.1 µM. The TGI [6] was 4.64 µM, the TGI [7] was > 100 µM and the TGI [10] was 6.31 µM. It also gave a TGI [8] of 5.19 µM.
`C/C=C(\C)C(=O)O[C@H]1C=CC(=O)O[C@H]1COC(=O)[C@H](C)O` gave a GI50 [2] of 2.34 µM, a TGI [2] of 6.9 µM and a GI50 [3] of 19.8 µM. It also gave a TGI [3] of 35.4 µM, a GI50 [4] of 7.37 µM and a TGI [4] of 26 µM. It also gave a GI50 [9] of 3.76 µM, a TGI [9] of 17.4 µM and a GI50 [5] of 1.95 µM. The TGI [5] was 5.22 µM, the GI50 [6] was 10.3 µM and the TGI [6] was 29.1 µM. It also gave a GI50 [7] of 3.2 µM, a TGI [7] of 14.5 µM and a TGI [10] of 7.41 µM. For the same molecule, the GI50 [8] was 9.73 µM and the TGI [8] was 23.3 µM.
